In US11091428B2 (HAPLOGEN GMBH, priority 2016, dated 2021) one finds IC50 and EC50 data, which are given here for 33 molecules.

Where two headings read alike, the source gives them in different places.

In test [1] the target is T1, PLA2G16 (Homo sapiens, UniProt P53816).
T1 construct: Hexa-His (N); made in house; host or cells: E. coli BL21(DE3)
T1 sequence (P53816 1-162): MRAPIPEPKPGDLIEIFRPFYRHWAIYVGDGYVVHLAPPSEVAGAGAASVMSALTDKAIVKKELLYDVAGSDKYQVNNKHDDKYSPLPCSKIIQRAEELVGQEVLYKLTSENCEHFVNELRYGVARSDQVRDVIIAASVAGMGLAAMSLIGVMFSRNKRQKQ
Put plainly: Enzyme activity assay for PLA2G16 (Red/Green BODIPY PC-A2 fluorescence). It is filed as biochemical. The conditions noted are these: His-tagged PLA2G16, 4 min pre-incubation, 2 nM to 50 μM; read-out: IC50 values of the compounds determined in the enzyme activity assay for PLA2G16. In a few lines:
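N-His-tagged human PLA2G16 from E. coli, Ni-NTA purified. Pre-incubated 4 min with compound (2 nM–50 μM final) in pH 8.5 Tris/NaCl buffer with 5 mM glutathione, then BODIPY PC-A2 in DOPC/DOPG/cholesterol vesicles added. Fluorescence (ex 480/em 530 nm) increase over 10 min taken as activity; IC50 by non-linear regression.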

Test [2] concerns picornaviruses (CVB1, HRV-A2, HRV-A23, EV-68). The test can be described thus: Anti-picornavirus cytopathic effect (CPE) reduction assay on HeLa H1 cells. It counts as cell-based. The conditions noted are these: Enterovirus B, HeLa H1, 48 h. In a few lines:
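HeLa H1 cells pre-treated 2 h with serially diluted compound in DMEM/2% FBS, then infected at an MOI giving full CPE in 2 days. After 48 h at 37° C, viability read by CellTiterBlue fluorescence (ex 560/em 590 nm), normalised to infected and uninfected vehicle controls; EC50 by non-linear regression, category from mean of four viruses.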

[3] abbreviates: HeLa H1 cells, 48 h, category from averaging the EC50 values from four picornaviruses (CVB1, HRV-A2, HRV-A23, EV68), read-out: EC50 values of the compounds determined in the anti-picornavirus assay.

As to `O=C(NC1CN(S(=O)(=O)C2CCCC2)C1)C(=O)[C@H]1CCC(=O)N1Cc1ccccc1` [FP 322, 2-[(2R)-1-Benzyl-5-oxopyrrolidin-2-yl]-N-[1-(cyclopentanesulfonyl)azetidin-3-yl]-2-oxoacetamide], in test [1], the IC50 is < 1 µM. Moreover, in test [2] (setting [3]), the EC50 is < 1 µM.
As to `C[C@H](CO)NC(=O)C(=O)C1CCC(=O)N1Cc1ccc(Cl)cc1` (stereo partly drawn) [FP 258, 2-{1-[(4-Chlorophenyl)methyl]-5-oxopyrrolidin-2-yl}-N-[(2R)-1-hydroxypropan-2-yl]-2-oxoacetamide], the IC50 in test [1] is 1 to 10 µM. The EC50 in test [2] (setting [3]) lay in the range of 1 to 10 µM.
Consider `CC(C)CNC(=O)C(=O)C(C)OC1CCCCC1` (stereo not drawn) [FP 124, 3-(Cyclohexyloxy)-N-(2-methylpropyl)-2-oxobutanamide], for which the IC50 in test [1] is < 1 µM. The EC50 in test [2] (setting [3]) is < 1 µM.
For `NC(=O)c1cccc(CN2C(=O)CCC2C(=O)C(=O)NCC2CCCCC2)c1` (stereo not drawn) [FP 249, 3-[(2-{[(Cyclohexylmethyl)carbamoyl]carbonyl}-5-oxopyrrolidin-1-yl)methyl]benzamide], the IC50 in test [1] was < 1 µM. Besides, the EC50 in test [2] (read-out: EC50 values of the compounds determined in the anti-picornavirus assay, HeLa H1 cells, 48 h, category from averaging the EC50 values from four picornaviruses (CVB1, HRV-A2, HRV-A23, EV68)) was < 1 µM.
Take `CC1(C)CC(=O)N(Cc2ccccc2)C1C(=O)C(=O)NC1CC1` (stereo not drawn) [FP 349, 2-(1-Benzyl-3,3-dimethyl-5-oxopyrrolidin-2-yl)-N-cyclopropyl-2-oxoacetamide]: the IC50 in test [1] was < 1 µM. In addition, the EC50 in test [2] (setting [3]) lay in the range of 1 to 10 µM.
`CC(NC(=O)C1CCCCC1)C(=O)C(=O)NCC1CC1` (stereo not drawn) [FP 161, 3-(Cyclohexylformamido)-N-(cyclopropylmethyl)-2-oxobutanamide]: the IC50 in test [1] is < 1 µM. Moreover, in test [2] (setting [3]), the EC50 was > 10 µM.
The like results for `CC(C)CNC(=O)C(=O)C(C)N(C=O)C1CCCCC1` (stereo not drawn) [FP 15, 3-(N-Cyclohexylformamido)-N-(2-methylpropyl)-2-oxobutanamide] were, in that order, < 1 µM and < 1 µM.
For `CC(C)C(=O)N1CCC(NC(=O)C(=O)[C@H]2CCC(=O)N2Cc2ccccc2)CC1` [FP 315, 2-[(2R)-1-Benzyl-5-oxopyrrolidin-2-yl]-N-[1-(2-methylpropanoyl)piperidin-4-yl]-2-oxoacetamide] the same measures were < 1 µM and 1 to 10 µM.
For `CC(C(=O)C(=O)NCC1CC1)N(C)C(=O)c1ccccc1` (stereo not drawn) [FP 149, N-(Cyclopropylmethyl)-3-(N-methyl-1-phenylformamido)-2-oxobutanamide] the same measures were < 1 µM and 1 to 10 µM.
In the case of `CCC(NS(=O)(=O)c1ccccc1)C(=O)C(=O)NCC1CC1` (stereo not drawn) [FP 216, 3-Benzenesulfonamido-N-(cyclopropylmethyl)-2-oxopentanamide], the IC50 in test [1] is < 1 µM. The EC50 in test [2] (setting [3]) lay within 1 to 10 µM.
On to `Cc1cccc(CN2C(=O)CCC2C(=O)C(=O)NC2CC2)c1` (stereo not drawn) [FP 269, N-Cyclopropyl-2-{1-[(3-methylphenyl)methyl]-5-oxopyrrolidin-2-yl}-2-oxoacetamide], for which the IC50 in test [1] is < 1 µM. Also, in test [2] (setting [3]), the EC50 lay within 1 to 10 µM.
The like results for `O=C(NCC1CCCC1)C(=O)C1CCC(=O)N1CC1CC1` (stereo not drawn) [FP 255, N-(Cyclopentylmethyl)-2-[1-(cyclopropylmethyl)-5-oxopyrrolidin-2-yl]-2-oxoacetamide] were, in that order, < 1 µM and 1 to 10 µM.
The like results for `CC(C)NC(=O)C(=O)C(C)OCc1ccccc1` (stereo not drawn) [FP 136, 3-(Benzyloxy)-2-oxo-N-(propan-2-yl)butanamide] were, in that order, < 1 µM and < 1 µM.
For `COc1ccccc1N(C=O)C(C)C(=O)C(=O)NCC1CC1` (stereo not drawn) [FP 105, N-(Cyclopropylmethyl)-3-[N-(2-methoxyphenyl)formamido]-2-oxobutanamide] the same measures were < 1 µM and 1 to 10 µM.
Take `CC(C(=O)C(=O)NCCC1CCOCC1)N(C=O)C1CCCCC1` (stereo not drawn) [FP 112, 3-(N-Cyclohexylformamido)-N-[2-(oxan-4-yl)ethyl]-2-oxobutanamide]: in test [1], the IC50 was < 1 µM. In addition, the EC50 in test [2] (setting [3]) is 1 to 10 µM.
The like results for `O=C(NCC1CC1)C(=O)C1CCC(=O)N1Cc1ccccc1` (stereo not drawn) [FP 138, 2-(1-Benzyl-5-oxopyrrolidin-2-yl)-N-(cyclopropylmethyl)-2-oxoacetamide] were, in that order, < 1 µM and < 1 µM.
The like results for `CC(C(=O)C(=O)NCC(F)(F)F)N(C=O)C1CCCCC1` (stereo not drawn) [FP 110, 3-(N-Cyclohexylformamido)-2-oxo-N-(2,2,2-trifluoroethyl)butanamide] were, in that order, < 1 µM and 1 to 10 µM.
The like results for `CC(NC(=O)c1cccc(Cl)c1)C(=O)C(=O)NCC1CC1` (stereo not drawn) [FP 172, 3-[(3-Chlorophenyl)formamido]-N-(cyclopropylmethyl)-2-oxobutanamide] were, in that order, < 1 µM and 1 to 10 µM.
Take `CCC(C(=O)C(=O)NCC1CCCCC1)N(C=O)CC1CN(C(=O)OC(C)(C)C)C1` (stereo not drawn) [FP 61, tert-Butyl 3-[(NM{1-[(cyclohexylmethyl)carbamoyl]-1-oxobutan-2-yl}formamido)methyl]-azetidine-1-carboxylate]: the IC50 in test [1] is < 1 µM. In addition, the EC50 in test [2] (setting [3]) lay within 1 to 10 µM.
For `CC(C(=O)C(=O)NCC1CC1)N(C=O)CC(C)(C)C` (stereo not drawn) [FP 41, N-(Cyclopropylmethyl)-3-[N-(2,2-dimethylpropyl)formamido]-2-oxobutanamide] the same measures were < 1 µM and 1 to 10 µM.
For `CC(C(=O)C(=O)NC1CC1)N(C=O)C1CCCCC1` (stereo not drawn) [FP 42, 3-(N-Cyclohexylformamido)-N-cyclopropyl-2-oxobutanamide] the same measures were < 1 µM and 1 to 10 µM.
The like results for `Cc1ccc(S(=O)(=O)NC(C)C(=O)C(=O)NCC2CC2)cc1` (stereo not drawn) [FP 189, N-(Cyclopropylmethyl)-3-(4-methylbenzenesulfonamido)-2-oxobutanamide] were, in that order, < 1 µM and 1 to 10 µM.
In the case of `CC(F)(F)CNC(=O)C(=O)[C@H]1CCC(=O)N1Cc1ccccc1` [FP 295, 2-[(2R)-1-Benzyl-5-oxopyrrolidin-2-yl]-N-(2,2-difluoropropyl)-2-oxoacetamide], the IC50 in test [1] is < 1 µM. In test [2] (setting [3]), the EC50 is < 1 µM.
For `COc1ccccc1OC(C)C(=O)C(=O)NC(C)C` (stereo not drawn) [FP 135, 3-(2-Methoxyphenoxy)-2-oxo-N-(propan-2-yl)butanamide], the IC50 in test [1] is < 1 µM. Further, the EC50 in test [2] (setting [3]) lay within 1 to 10 µM.
For `O=C(NC1CC1)C(=O)[C@H]1CCC(=O)N1Cc1ccc(Cl)cc1` [FP 284, 2-[(2R)-1-[(4-Chlorophenyl)methyl]-5-oxopyrrolidin-2-yl]-N-cyclopropyl-2-oxoacetamide], the IC50 in test [1] is < 1 µM. In test [2] (setting [3]), the EC50 is < 1 µM.
As for `CC(C(=O)C(=O)NCC1CCCCC1)N(C=O)CC(F)(F)F` (stereo not drawn) [FP 50, N-(Cyclohexylmethyl)-2-oxo-3-[N-(2,2,2-trifluoroethyl)formamido]butanamide], the IC50 in test [1] is < 1 µM. In addition, the EC50 in test [2] (setting [3]) was < 1 µM.
For the molecule `CCCC(NC(=O)CN1CCN(C)CC1)C(=O)C(=O)NCC1CCCCC1` (stereo not drawn) [FP 214, N-(Cyclohexylmethyl)-3-[2-(4-methylpiperazin-1-yl)acetamido]-2-oxohexanamide], in test [1], the IC50 is 1 to 10 µM. The EC50 in test [2] (setting [3]) is > 10 µM.
For `O=C(NCCN1CCCCC1=O)C(=O)[C@H]1CCC(=O)N1Cc1ccccc1` [FP 292, 2-[(2R)-1-Benzyl-5-oxopyrrolidin-2-yl]-2-oxo-N-[2-(2-oxopiperidin-1-yl)ethyl]acetamide] the same measures were < 1 µM and 1 to 10 µM.
For `CC(OC1CCCCC1)C(=O)C(=O)NCC1CC1` (stereo not drawn) [FP 120, 3-(Cyclohexyloxy)-N-(cyclopropylmethyl)-2-oxobutanamide] the same measures were < 1 µM and < 1 µM.
The like results for `O=C(NCc1cccc(=O)[nH]1)C(=O)C1CCC(=O)N1Cc1ccc(Cl)cc1` (stereo not drawn) [FP 247, 2-{1-[(4-Chlorophenyl)methyl]-5-oxopyrrolidin-2-yl}-2-oxo-N-[(6-oxo-1,6-dihydropyridin-2-yl)methyl]acetamide] were, in that order, < 1 µM and 1 to 10 µM.
As to `COc1ccccc1N(C=O)C(C)C(=O)C(=O)N[C@H](C)C(C)C` (stereo partly drawn) [FP 107, 3-[N-(2-Methoxyphenyl)formamido]-N-[(2R)-3-methylbutan-2-yl]-2-oxobutanamide], in test [1], the IC50 is < 1 µM. The EC50 in test [2] (setting [3]) fell in the range of 1 to 10 µM.
The like results for `COCCCN(C=O)C(CC(C)C)C(=O)C(=O)NCC1CC1` (stereo not drawn) [FP 72, N-(Cyclopropylmethyl)-3-[N-(3-methoxypropyl)formamido]-5-methyl-2-oxohexanamide] were, in that order, < 1 µM and 1 to 10 µM.
In the case of `CC(C(=O)C(=O)NCC1CC1)N(C=O)Cc1ccccc1` (stereo not drawn) [FP 37, 3-(N-Benzylformamido)-N-(cyclopropyylmethyl)-2-oxobutanamide], in test [1], the IC50 is < 1 µM. For the same molecule, in test [2] (setting [3]), the EC50 is < 1 µM.

For orientation: IC50 means the point on the concentration scale where inhibition reaches its midpoint. As usually defined, the EC50 is the concentration giving half of the maximal effect.
